Reference: patent publication US20160317420A1, “METHOD OF IMPROVING THE APPEARANCE OF SKIN AND COMPOSITIONS THEREFOR” (The Procter & Gamble Company, priority 2015, published 2016)

Tests used:
[1] = tested on: glycation reaction between the gelatin and glyceraldehyde; test: AGE Assay (in vitro suppression of AGE formation and yellowness reduction); assay type: biochemical; conditions: for % reduction in glycation rate vs. pos. ctrl.: 24-hr; for Δb* at 24-hr vs. 0-hour: blank-corrected yellowness; for ΔFLR at 24-hr vs. 0-hr: fluorescence 400/465 nm, 24 hours at 37° C.
Description: The anti-glycation ability of NR was determined as follows. Samples were prepared in a 96-well plate (3 replicates each) at a total volume of 250 μl/well. The test samples contained 112.5 μl of 2% w/v gelatin solution (commercially available from Sigma as Catalog # G1393-100 ML), 10 μl of 1 M glyceraldehyde (commercially available from Sigma as Catalog # G5001-1 G), 102.5 p1 Dulbecco's phosphate buffered saline (“DPBS”) (commercially available from Gibco's), and varying doses (0.1%, 0.5%, 1% and 5% w/v) of nicotinamide riboside chloride (“NR”) (available from Chromadex, Irvine, CA). The positive control contained 112.5 μl gelatin, 10 μl of 1 M glyceraldehyde and 127.5 μl DPBS. The negative control contained 112.5 μl gelatin and 137.5 μl DPBS. A 5% w/v niacinamide (“N”) composition was used for a benchmark comparison. The niacinamide sample contained the same amounts of gelatin, glyceraldehyde and DPBS as the 5% NR sample. The plate containing the test samples was placed in a CO2 incubator (e.g., THERMO SCIENTIFIC FORMA brand CO2 incubator available from Fisher Scientific, Waltham, Mass. or equivalent) and incubated for 24 hours at 37° C.
After 24 hours, the plate containing the test samples was removed from the incubator and placed in a SPECTRAMAX Plus brand spectrophotometer (available from Molecular Devices, Sunnyvale, Calif.). The spectrophotometer was set to detect fluorescence intensity (“FLR”) at 400/465 nm (ex/em). Glycation rate was determined by measuring FLR, at 0-hour (i.e., at the start of the test), 2-hour, 5-hour and 24-hour time points. The change in fluorescence intensity (“ΔFLR”) was determined by comparing the FLR of a well at a sampling time point to the 0-hour time point. To determine yellowness (i.e., b* value), a SPECTRAMAX Plus brand spectrophotometer was used to collect wavelength/absorbance pairs from 350 nm to 750 nm in 10 nm increments following the same time course as the FLR measurements (i.e., 0-hour, 2-hour, 5-hour and 24-hour). The wavelength/absorbance pairs were then converted to L*a*b* values by a computer using conversion software. The change in yellowness (“Ab*”) at a particular time point was determined by subtracting the b* value at the 0-hour time point from the b* value measured at the time point of interest. To correct for yellowness that is not due to the glycation reaction between the gelatin and glyceraldehyde, a blank well was set up for each treatment leg. The blank well contains every ingredient in the corresponding treatment leg except for the gelatin. The b* value of the blank well is subtracted from the b* value measured for each well before calculating the final Ab* value.

[2] = tested on: HMGB1 released from human neonatal keratinocytes exposed to CSE; test: HMGB1 Assay (in vitro stress test, cigarette smoke extract); assay type: cell-based; conditions: 0.01% w/v + CSE; for AVG HMGB1 released: keratinocytes, 24 hours, ELISA; for effect on the amount of HMGB1 released by keratinocytes exposed to CSE, relative to CSE test medium: p<0.1 significant
Description: Human neonatal keratinocytes (available from Thermo) were placed in each well of four 12-well plates. Each well also contained 2 ml of EPILIFE brand keratinocyte medium. The plates were incubated at 37 ° C. in a CO2 incubator until cell confluency reached 70%. Once the cell confluency reached 70%, the keratinocyte medium in each well was replaced with the appropriate medium for the test (i.e., control medium, CSE test medium, niacinamide (“N”)+CSE test medium or nicotinamide riboside chloride (“NR”)+CSE test medium) to produce test samples. The resulting test samples were incubated for 24 hours at 37 ° C. in a CO2 incubator, after which the medium in each cell was removed and the HMGB 1 levels were determined using an ELISA kit from IBL according to the manufacturer's instructions.
The N and NR media were made by adding either niacinamide or nicotinamide riboside chloride (available from Chromadex, Irvine, Calif.) to EPILIFE brand keratinocyte medium to produce a 0.01% w/v solution. The cigarette smoke extract was made by suctioning a lit cigarette through a vacuum flask containing 60 mL of phosphate buffered saline (“PBS”). 4 CAMEL brand cigarettes with the filters cut off were used to create a batch of CSE. The CSE was diluted 1:20 using keratinocyte medium to create the CSE test medium. The N+CSE medium and NR+CSE medium were prepared by adding CSE test medium to final dilution of 1:6 (CSE:medium) and either N or NR to final dilution of 0.01% w/v. Unmodified keratinocyte medium was used as the control.

SMILES	% reduction in glycation rate vs. pos. ctrl. ([1]; 5% w/v) [%]	Δb* at 24-hr vs. 0-hour ([1]; 5% w/v)	ΔFLR at 24-hr vs. 0-hr ([1]; 5% w/v)	AVG HMGB1 released [2] [ng/mL]	effect on the amount of HMGB1 released by keratinocytes exposed to CSE, relative to CSE test medium [2]	% reduction in glycation rate vs. pos. ctrl. ([1]; 0.1% w/v) [%]	Δb* at 24-hr vs. 0-hour ([1]; 0.1% w/v)	ΔFLR at 24-hr vs. 0-hr ([1]; 0.1% w/v)	% reduction in glycation rate vs. pos. ctrl. ([1]; 0.5% w/v) [%]	Δb* at 24-hr vs. 0-hour ([1]; 0.5% w/v)	ΔFLR at 24-hr vs. 0-hr ([1]; 0.5% w/v)	% reduction in glycation rate vs. pos. ctrl. ([1]; 1% w/v) [%]	Δb* at 24-hr vs. 0-hour ([1]; 1% w/v)	ΔFLR at 24-hr vs. 0-hr ([1]; 1% w/v)
NC(=O)c1cccnc1 [N, niacinamide, reference compound]	33.2	9.19	2341	4.2790	no significant effect									
NC(=O)c1ccc[n+]([C@@H]2O[C@H](CO)[C@@H](O)[C@H]2O)c1 [NR, nicotinamide riboside chloride]	98.8	−2.09	41	2.0741	significantly reduce	22.2	9.44	2729	63	−4.24	1294	85.5	−11.00	507
